Consider 14 compounds from ChEMBL document CHEMBL1142870, “Antitumor potential of crown ethers: structure-activity relationships, cell cycle disturbances, and cell death studies of a series of ionophores” (J Med Chem, 2007).

Test [1] has as its system NCI-H460. Description: Antiproliferative activity against H460 cells after 72 hrs by MTT assay. In kind it is functional, cell-based. Conditions: Homo sapiens, NCI-H460, 72 h.
The test system of test [2] is HeLa. Description: Antiproliferative activity against HeLa cells after 72 hrs by MTT assay. The format is functional, cell-based. Conditions: Homo sapiens.
The subject of test [3] is MIA PaCa-2. Description: Antiproliferative activity against MiaPaCa2 cells after 72 hrs by MTT assay. The format is functional, cell-based. Conditions: Homo sapiens, MIA PaCa-2, 72 h.
For test [4], the system named is SW-620. Description: Antiproliferative activity against SW620 cells after 72 hrs by MTT assay. The format is functional, cell-based. Conditions: Homo sapiens, SW-620, 72 h.
The subject of test [5] is MCF7. Description: Antiproliferative activity against MCF7 cells after 72 hrs by MTT assay. The format is functional, cell-based. Conditions: Homo sapiens, MCF7, 72 h.
Test [6] concerns MIA PaCa-2. Description: Cell cycle arrest in MiaPaCa2 cells by accumulation at G1 phase at 10 nM. The format is functional, cell-based. Conditions: Homo sapiens, TDE = time-dependent effect.
For test [7], the system named is MIA PaCa-2. Description: Cell cycle arrest in MiaPaCa2 cells by accumulation at SubG1 phase at 10 nM after 24 hrs. In kind it is functional, Homo sapiens.
For test [8], the system named is MIA PaCa-2. Description: Cell cycle arrest in MiaPaCa2 cells by accumulation at G1/G0 phase at 10 nM after 24 hrs. In kind it is functional, Homo sapiens.
The test system of test [9] is MIA PaCa-2. Description: Cell cycle arrest at MiaPaCa2 cells by accumulation at S phase at 10 nM after 24 hrs. The format is functional, Homo sapiens.
For test [10], the system named is MIA PaCa-2. Description: Cell cycle arrest at MiaPaCa2 cells by accumulation at G2/M phase at 10 nM after 24 hrs. The format is functional, Homo sapiens.
The subject of test [11] is MIA PaCa-2. Description: Cell cycle arrest in MiaPaCa2 cells by accumulation at SubG1 phase at 10 nM after 36 hrs. The format is functional, Homo sapiens.
The subject of test [12] is MIA PaCa-2. Description: Cell cycle arrest in MiaPaCa2 cells by accumulation at G1/G0 phase at 10 nM after 36 hrs. The format is functional, Homo sapiens.
For test [13], the system named is MIA PaCa-2. Description: Cell cycle arrest at MiaPaCa2 cells by accumulation at S phase at 10 nM after 36 hrs. In kind it is functional, Homo sapiens.
The subject of test [14] is MIA PaCa-2. Description: Cell cycle arrest at MiaPaCa2 cells by accumulation at G2/M phase at 10 nM after 36 hrs. In kind it is functional, Homo sapiens.
Test [15] relates to MIA PaCa-2. Description: Cell cycle arrest in MiaPaCa2 cells by accumulation at SubG1 phase at 10 nM after 48 hrs. The format is functional, Homo sapiens.
Test [16] relates to MIA PaCa-2. Description: Cell cycle arrest in MiaPaCa2 cells by accumulation at G1/G0 phase at 10 nM after 48 hrs. In kind it is functional, Homo sapiens.
Test [17] relates to MIA PaCa-2. Description: Cell cycle arrest at MiaPaCa2 cells by accumulation at S phase at 10 nM after 48 hrs. In kind it is functional, Homo sapiens.
The subject of test [18] is MIA PaCa-2. Description: Cell cycle arrest at MiaPaCa2 cells by accumulation at G2/M phase at 10 nM after 48 hrs. The format is functional, Homo sapiens.

The structures appear in SMILES notation.

Consider `c1ccc2c(c1)OCCOCCOCCOCCOc1ccccc1OCCOCCOCCOCCO2`, for which the IC50 in test [1] stood at 9 µM; in test [2] it was 11 µM; in test [3], 7 µM; in test [4], 17 µM; in test [5], 30 µM.
The like results for `COC(=O)[C@H](NC(=O)CN1CCOCCOCCN(CC(=O)N[C@@H](C(=O)OC)c2ccccc2)CCOCCOCC1)c1ccccc1` were, in that order, above 100 µM, above 100 µM, above 100 µM, at least 100 µM and above 100 µM.
The corresponding values for `c1ccc(CN2CCOCCOCCOCCOCC2)cc1` are above 100 µM, above 100 µM, above 100 µM, above 100 µM and above 100 µM.
The corresponding values for `CC(C)(C)c1ccc(O)c(O)c1` are 22 µM, 24 µM, 20 µM, 22 µM and 23 µM.
Consider `O=C(NCC(=O)N1CCOCCOCCN(C(=O)CNC(=O)OCc2ccccc2)CCOCCOCC1)OCc1ccccc1`, for which the IC50 in test [1] is above 100 µM; in test [2], 37 µM; in test [3], 71 µM; in test [4], 40 µM; in test [5] it was 44 µM.
The like results for `c1ccc2c(c1)OCCOCCOCCOc1ccccc1OCCOCCOCCO2` were, in that order, 24 µM, 21 µM, 32 µM, 72 µM and above 100 µM.
The corresponding values for `c1ccc(CN2CCOCCOCCN(Cc3ccccc3)CCOCCOCC2)cc1` are 25 µM, 14 µM, 23 µM, 6 µM and 25 µM.
For the compound `c1ccc(CNCCOCCOCCNCc2ccccc2)cc1`, the IC50 in test [1] was 31 µM; in test [2] it was 24 µM; in test [3] it was above 100 µM; in test [4] it was 39 µM; in [5] it was above 100 µM.
On to `c1ccc2c(c1)OCCOCCOc1ccccc1OCCOCCO2`, for which the IC50 in test [1] was determined as 28 µM; in test [2], 17 µM; in test [3] it was 28 µM; in test [4], 17 µM; in test [5], 49 µM.
Take `CC(C)[C@@H]1NC(=O)[C@H](C)OC(=O)[C@@H](C(C)C)NC(=O)[C@@H](C(C)C)OC(=O)[C@H](C(C)C)NC(=O)[C@H](C)OC(=O)[C@@H](C(C)C)NC(=O)[C@@H](C(C)C)OC(=O)[C@H](C(C)C)NC(=O)[C@H](C)OC(=O)[C@@H](C(C)C)NC(=O)[C@@H](C(C)C)OC1=O` [VALINOMYCIN]: the Activity entry is “tde” in [6]; 35% in [7]; 60% in [8]; 24% in test [9]; 24% in test [10]; 42% in [11]. The Activity in [12] is given as 63%; in [13], 12%; in test [14], 23%; in test [15] it was 49%; in [16], 62%; in [17], 19%. Besides, in [18], the Activity amounted to 18%. In addition, the IC50 in test [1] worked out at 0.001 µM; in [2] it was 0.001 µM; in test [3] it was 0.001 µM; in [4], 0.0001 µM; in test [5], 0.5 µM.
Turning to `CC(C)(C)c1cc2c(c(C(C)(C)C)c1)OCCOCCOc1c(cc(C(C)(C)C)cc1C(C)(C)C)OCCOCCO2`, the IC50 came to 19 µM in test [1]; 10 µM in [2]; 15 µM in test [3]; 19 µM in test [4]; 8 µM in [5].
In the case of `CC(C)(C)c1cc(O)c(OCCOCCOc2c(O)cc(C(C)(C)C)cc2C(C)(C)C)c(C(C)(C)C)c1`, the IC50 was 8 µM in test [1]; 11 µM in test [2]; 18 µM in [3]; 19 µM in test [4]; 29 µM in test [5].
The corresponding values for `C1CCC2OCCOCCOC3CCCCC3OCCOCCOC2C1` (stereo not drawn) [ICOSAHYDRODIBENZO[B,K][1,4,7,10,13,16]HEXAOXACYCLOOCTADECINE] are 16 µM, 25 µM, 16 µM, 7 µM and 36 µM.
The like results for `OCCN(CCO)Cc1ccccc1` were, in that order, above 100 µM, above 100 µM, above 100 µM, above 100 µM and above 100 µM.
